In patent EP4678638A1, “NEW E3 UBIQUITIN LIGASE LIGAND, PROTEIN DEGRADATION AGENT AND USE THEREOF” (priority 2023, dated 2024):

Tests used:
[1] = target: T1, human Cereblon WT GST-tagged protein (Homo sapiens, UniProt Q96SW2); assay: CRBN binding, HTRF (CEREBLON BINDING kit); conditions: Table II-2, CRBN binding screening, HTRF
T1 construct: purchased CISBIO 64BDCRBNPEH
Method in brief: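 Competitive HTRF: GST-tagged human WT Cereblon mixed with compound, Thalidomide-Re tracer and GST Eu antibody, incubated 3 h at room temperature. Signals read at 620 and 665 nm.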

RSK1 = target: T2, RSK1 (Homo sapiens, UniProt Q15418); assay: Western blot degradation of RSK1 (hPBMC); type: cell-based; conditions: Table D8
T2 construct: evaluate the effects of the compounds of the present disclosure on the expression of target proteins in cells; endogenous in cells; host or cells: hPBMC
T2 sequence (Q15418 whole entry): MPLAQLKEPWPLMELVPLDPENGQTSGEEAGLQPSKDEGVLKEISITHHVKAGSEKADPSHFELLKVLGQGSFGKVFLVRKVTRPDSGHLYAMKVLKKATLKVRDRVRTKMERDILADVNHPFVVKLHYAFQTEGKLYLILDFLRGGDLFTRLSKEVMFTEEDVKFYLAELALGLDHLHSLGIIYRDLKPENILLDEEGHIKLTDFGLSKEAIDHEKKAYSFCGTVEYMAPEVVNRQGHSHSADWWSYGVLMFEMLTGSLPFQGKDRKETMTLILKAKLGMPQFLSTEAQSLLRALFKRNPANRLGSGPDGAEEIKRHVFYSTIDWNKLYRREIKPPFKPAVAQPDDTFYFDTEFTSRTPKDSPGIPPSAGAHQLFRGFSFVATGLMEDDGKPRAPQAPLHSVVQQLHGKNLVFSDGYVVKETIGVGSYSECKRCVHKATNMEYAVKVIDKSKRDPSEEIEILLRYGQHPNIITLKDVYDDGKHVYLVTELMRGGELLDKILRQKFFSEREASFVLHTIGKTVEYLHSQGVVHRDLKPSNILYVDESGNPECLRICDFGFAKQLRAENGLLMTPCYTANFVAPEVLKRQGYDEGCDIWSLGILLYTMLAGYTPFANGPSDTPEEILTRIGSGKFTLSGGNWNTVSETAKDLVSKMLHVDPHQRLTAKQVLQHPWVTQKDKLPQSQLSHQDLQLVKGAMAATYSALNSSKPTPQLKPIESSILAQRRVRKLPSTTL
Experimental: (§1) Conventional Western blot assay was performed to evaluate the effects of the compounds of the present disclosure on the expression of target proteins in cells.
(§2) (1) Cell Seeding and Protein Harvesting: The selected cells were processed according to the cell seeding procedure and protein harvesting procedure in Table III-2. Table III-2 Cell Seeding and Protein Harvesting Procedures
(§3) (2) To the collected supernatant, 5X SDS sample loading buffer was added, followed by denaturation at 95°C for 5 minutes. The denatured samples were then separated by SDS-PAGE electrophoresis on a polyacrylamide gel. Proteins were transferred to a nitrocellulose membrane (0.45 µm NC membrane), blocked with blocking buffer at room temperature for 1 hour, and subjected to antibody incubation and development procedures according to the antibody manufacturer's instructions (Cell Signaling Technology).
(§4) Half-Maximal Degradation Concentration value (the drug concentration required for degrading proteins by 50%, abbreviated as DC50) reads method: comparing the grayscale values of Western blot bands from drug-treated samples with those from blank DMSO-treated controls, and identifying the drug concentration range at which the grayscale value is half that of the DMSO-treated control bands.
(§5) DC50 values can be calculated using ImageJ software to measure grayscale values of Western blot bands from drug-treated samples. The concentration-response curve is fitted to estimate the drug concentration corresponding to half the grayscale value.
(§6) Target protein remaining (%) refers to the percentage of target protein remaining in hPBMC cells after treatment with protein degrader compounds.
(§7) Calculation method for target protein remaining (%): Use ImageJ software to measure grayscale values of Western blot bands from drug (protein degrader)-treated samples. The grayscale value of drug-treated bands is divided by that of internal control protein bands, and the resulting quotient is normalized to obtain the relative percentage of remaining target protein after protein degrader treatment.
(§8) Target protein degradation rate (%) = 100% - target protein remaining (%).

RSK2 = target: T3, RSK2 (Homo sapiens, UniProt P51812); assay: Western blot degradation of RSK2 (hPBMC); type: cell-based; conditions: Table D8
T3 construct: evaluate the effects of the compounds of the present disclosure on the expression of target proteins in cells; endogenous in cells; host or cells: hPBMC
T3 sequence (P51812 whole entry): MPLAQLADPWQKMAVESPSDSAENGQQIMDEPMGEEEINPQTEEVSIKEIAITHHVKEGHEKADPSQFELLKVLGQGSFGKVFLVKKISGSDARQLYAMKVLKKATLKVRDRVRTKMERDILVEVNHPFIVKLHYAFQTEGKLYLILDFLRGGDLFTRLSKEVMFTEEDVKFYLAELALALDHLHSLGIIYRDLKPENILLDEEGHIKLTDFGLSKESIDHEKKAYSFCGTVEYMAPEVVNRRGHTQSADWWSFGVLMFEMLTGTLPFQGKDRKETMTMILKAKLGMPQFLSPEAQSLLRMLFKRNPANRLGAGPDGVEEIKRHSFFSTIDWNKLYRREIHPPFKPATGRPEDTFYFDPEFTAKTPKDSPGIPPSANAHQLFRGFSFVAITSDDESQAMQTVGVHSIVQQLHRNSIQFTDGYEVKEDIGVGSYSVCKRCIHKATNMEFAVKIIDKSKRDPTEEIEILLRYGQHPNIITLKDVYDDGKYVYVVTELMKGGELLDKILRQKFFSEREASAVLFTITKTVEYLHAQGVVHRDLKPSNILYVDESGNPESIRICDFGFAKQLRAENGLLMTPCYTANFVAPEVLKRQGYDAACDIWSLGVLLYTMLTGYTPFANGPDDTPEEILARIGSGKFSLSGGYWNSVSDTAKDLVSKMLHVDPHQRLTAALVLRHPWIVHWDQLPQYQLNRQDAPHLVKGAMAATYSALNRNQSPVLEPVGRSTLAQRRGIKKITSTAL
Experimental: as §1, §2, §3, §4, §5, §6, §7, §8

T1 sequence (Q96SW2 whole entry): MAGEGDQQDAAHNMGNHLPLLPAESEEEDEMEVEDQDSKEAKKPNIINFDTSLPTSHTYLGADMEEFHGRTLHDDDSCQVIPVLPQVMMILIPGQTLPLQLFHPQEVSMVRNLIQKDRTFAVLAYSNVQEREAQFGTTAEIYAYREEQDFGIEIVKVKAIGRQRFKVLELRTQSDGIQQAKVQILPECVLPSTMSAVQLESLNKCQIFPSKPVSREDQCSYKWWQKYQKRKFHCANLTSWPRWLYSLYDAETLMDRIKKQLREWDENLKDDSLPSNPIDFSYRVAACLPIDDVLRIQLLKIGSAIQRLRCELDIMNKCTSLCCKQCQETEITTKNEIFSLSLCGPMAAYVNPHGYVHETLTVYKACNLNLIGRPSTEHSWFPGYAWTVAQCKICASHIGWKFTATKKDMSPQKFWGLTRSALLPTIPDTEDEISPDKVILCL

In the case of `C[C@@H]1CNC(=O)c2cc3ccc(C(=O)Nc4cnn(Cc5ccc(N6CCC(N7CCN(Cc8cccc(N9CCC(=O)NC9=O)c8)CC7)CC6)cc5)c4)nc3n21` [GT-07953, (R)-N-(1-(4-(4-(4-(3-(2,4-dioxotetrahydropyrimidin-1(2H)-yl)benzyl)piperazin-1-yl)piperidin-1-yl)benzyl)-1H-pyrazol-4-yl)-9-methyl-6-oxo-6,7,8,9-tetrahydropyrido[3',2':4,5]pyrrolo[1,2-a]pyrazine-2-carboxamide], the inhibition at 0.5 µM ([1]; at 0.5µM, read-out: Inhibition rate (%) at 0.5µM) is reported as 20 to 30%, the inhibition at 2 µM ([1]; at 2 µM, read-out: Inhibition rate (%) at 2 µM) is reported as 53 to 60% and the “Degradation of substrate protein RSK1 (substrate protein remaining %)” value (RSK1) is reported as “A (A is defined as 0% ≤ substrate protein remaining % ≤ 80%)”. For the same compound, the “Degradation of substrate protein RSK2 (substrate protein remaining %)” value (RSK2) was “A (A is defined as 0% ≤ substrate protein remaining % ≤ 80%)”.

In the case of `C[C@@H]1CNC(=O)c2cc3ccc(C(=O)Nc4cnn(Cc5ccc(N6CCC(N(C)Cc7cccc(NC8CCC(=O)NC8=O)c7)CC6)cc5)c4)nc3n21` (stereo partly drawn) [GT-07942, (9R)-N-(1-(4-(4-((3-((2,6-dioxopiperidin-3-yl)amino)benzyl)(methyl)amino)piperidin-1-yl)benzyl)-1H-pyrazol-4-yl)-9-methyl-6-oxo-6,7,8,9-tetrahydropyrido[3',2':4,5]py rrolo[1,2-a]pyrazine-2-carboxamide], the “Degradation of substrate protein RSK1 (substrate protein remaining %)” value (RSK1) is reported as “A (A is defined as 0% ≤ substrate protein remaining % ≤ 80%)” and the “Degradation of substrate protein RSK2 (substrate protein remaining %)” value (RSK2) is reported as “A (A is defined as 0% ≤ substrate protein remaining % ≤ 80%)”.

`C[C@@H]1CNC(=O)c2cc3ccc(C(=O)Nc4cnn(Cc5ccc(N6CCN(Cc7ccc(N8CCC(=O)NC8=O)cn7)CC6)cc5)c4)nc3n21` [GT-07929, (R)-N-(1-(4-(4-((5-(2,4-dioxotetrahydropyrimidin-1(2H)-yl)pyridin-2-yl)methyl)piperazin-1-yl)benzyl)-1H-pyrazol-4-yl)-9-methyl-6-oxo-6,7,8,9-tetrahydropyrido[3',2':4,5]py rrolo[1,2-a]pyrazine-2-carboxamide] was tested, and the “Degradation of substrate protein RSK1 (substrate protein remaining %)” value (RSK1) was “A (A is defined as 0% ≤ substrate protein remaining % ≤ 80%)” and the “Degradation of substrate protein RSK2 (substrate protein remaining %)” value (RSK2) was “B (B is defined as substrate protein remaining % > 80%)”.

In the case of `C[C@@H]1CNC(=O)c2cc3ccc(C(=O)Nc4cnn(Cc5ccc(N6CCC(N7CCN(Cc8cncc(N9CCC(=O)NC9=O)c8)CC7)CC6)cc5)c4)nc3n21` [GT-07959, (R)-N-(1-(4-(4-(4-((5-(2,4-dioxotetrahydropyrimidin-1(2H)-yl)pyridin-3-yl)methyl)piperazin-1-yl)piperidin-1-yl)benzyl)-1H-pyrazol-4-yl)-9-methyl-6-oxo-6,7,8,9-tetrahydropyrido[3',2':4,5]pyrrolo[1,2-a]pyrazine-2-carboxamide], the “Degradation of substrate protein RSK1 (substrate protein remaining %)” value (RSK1) is reported as “A (A is defined as 0% ≤ substrate protein remaining % ≤ 80%)” and the “Degradation of substrate protein RSK2 (substrate protein remaining %)” value (RSK2) is reported as “A (A is defined as 0% ≤ substrate protein remaining % ≤ 80%)”.

In the case of `C[C@@H]1CNC(=O)c2cc3ccc(C(=O)Nc4cnn(Cc5ccc(N6CCC(N(C)Cc7ccc(N8CCC(=O)NC8=O)cc7)CC6)cc5)c4)nc3n21` [GT-07938, (R)-N-(1-(4-(4-((4-(2,4-dioxotetrahydropyrimidin-1(2H)-yl)benzyl)(methyl)amino)piperidin-1-yl)benzyl)-1H-pyrazol-4-yl)-9-methyl-6-oxo-6,7,8,9-tetrahydropyrido[3',2':4,5]py rrolo[1,2-a]pyrazine-2-carboxamide], the “Degradation of substrate protein RSK1 (substrate protein remaining %)” value (RSK1) is reported as “A (A is defined as 0% ≤ substrate protein remaining % ≤ 80%)” and the “Degradation of substrate protein RSK2 (substrate protein remaining %)” value (RSK2) is reported as “B (B is defined as substrate protein remaining % > 80%)”.

In the case of `C[C@@H]1CNC(=O)c2cc3ccc(C(=O)Nc4cnn(Cc5ccc(N6CCN(Cc7ncc(C8CCC(=O)NC8=O)cc7F)CC6)cc5)c4)nc3n21` (stereo partly drawn) [GT-07933, (9R)-N-(1-(4-(4-((5-(2,6-dioxopiperidin-3-yl)-3-fluoropyridin-2-yl)methyl)piperazin-1-yl)benzyl)-1H-pyrazol-4-yl)-9-methyl-6-oxo-6,7,8,9-tetrahydropyrido[3',2':4,5]py rrolo[1,2-a]pyrazine-2-carboxamide], the “Degradation of substrate protein RSK1 (substrate protein remaining %)” value (RSK1) is reported as “A (A is defined as 0% ≤ substrate protein remaining % ≤ 80%)” and the “Degradation of substrate protein RSK2 (substrate protein remaining %)” value (RSK2) is reported as “B (B is defined as substrate protein remaining % > 80%)”.

In the case of `C[C@@H]1CNC(=O)c2cc3ccc(C(=O)Nc4cnn(Cc5ccc(N6CCC(N(C)Cc7cncc(C8CCC(=O)NC8=O)c7)CC6)cc5)c4)nc3n21` (stereo partly drawn) [GT-07948, (9R)-N-(1-(4-(4-(((5-(2,6-dioxopiperidin-3-yl)pyridin-3-yl)methyl)(methyl)amino)piperidin-1-yl)benzyl)-1H-pyrazol-4-yl)-9-methyl-6-oxo-6,7,8,9-tetrahydropyrido[3',2':4,5]py rrolo[1,2-a]pyrazine-2-carboxamide], the “Degradation of substrate protein RSK1 (substrate protein remaining %)” value (RSK1) is reported as “A (A is defined as 0% ≤ substrate protein remaining % ≤ 80%)” and the “Degradation of substrate protein RSK2 (substrate protein remaining %)” value (RSK2) is reported as “A (A is defined as 0% ≤ substrate protein remaining % ≤ 80%)”.

For `C[C@@H]1CNC(=O)c2cc3ccc(C(=O)Nc4cnn(Cc5ccc(N6CCN(Cc7cccc(N8CCC(=O)NC8=O)c7)CC6)cc5)c4)nc3n21` [GT-07928, (R)-N-(1-(4-(4-(3-(2,4-dioxotetrahydropyrimidin-1(2H)-yl)benzyl)piperazin-1-yl)benzyl)-1H-pyrazol-4-yl)-9-methyl-6-oxo-6,7,8,9-tetrahydropyrido[3',2':4,5]py rrolo[1,2-a]pyrazine-2-carboxamide], the “Degradation of substrate protein RSK1 (substrate protein remaining %)” value (RSK1) was “A (A is defined as 0% ≤ substrate protein remaining % ≤ 80%)” and the “Degradation of substrate protein RSK2 (substrate protein remaining %)” value (RSK2) was “A (A is defined as 0% ≤ substrate protein remaining % ≤ 80%)”.

`C[C@@H]1CNC(=O)c2cc3ccc(C(=O)Nc4cnn(Cc5ccc(N6CCC(N7CCN(Cc8cnc(N9CCC(=O)NC9=O)cn8)CC7)CC6)cc5)c4)nc3n21` [GT-07963, (R)-N-(1-(4-(4-(4-((5-(2,4-dioxotetrahydropyrimidin-1(2H)-yl)pyrazin-2-yl)methyl)piperazin-1-yl)piperidin-1-yl)benzyl)-1H-pyrazol-4-yl)-9-methyl-6-oxo-6,7,8,9-tetrahydropyrido[3',2':4,5]pyrrolo[1,2-a]pyrazine-2-carboxamide] was tested, and the “Degradation of substrate protein RSK1 (substrate protein remaining %)” value (RSK1) was “A (A is defined as 0% ≤ substrate protein remaining % ≤ 80%)” and the “Degradation of substrate protein RSK2 (substrate protein remaining %)” value (RSK2) was “A (A is defined as 0% ≤ substrate protein remaining % ≤ 80%)”.

With `C[C@@H]1CNC(=O)c2cc3ccc(C(=O)Nc4cnn(Cc5ccc(N6CCC(N(C)Cc7ccnc(N8CCC(=O)NC8=O)c7)CC6)cc5)c4)nc3n21` [GT-07944, (R)-N-(1-(4-(4-(((2-(2,4-dioxotetrahydropyrimidin-1(2H)-yl)pyridin-4-yl)methyl)(methyl)amino)piperidin-1-yl)benzyl)-1H-pyrazol-4-yl)-9-methyl-6-oxo-6,7,8,9-tetrahydropyrido[3',2':4,5]py rrolo[1,2-a]pyrazine-2-carboxamide] the “Degradation of substrate protein RSK1 (substrate protein remaining %)” value (RSK1) was “A (A is defined as 0% ≤ substrate protein remaining % ≤ 80%)” and the “Degradation of substrate protein RSK2 (substrate protein remaining %)” value (RSK2) was “A (A is defined as 0% ≤ substrate protein remaining % ≤ 80%)”.
